Experimental data published in ChEMBL document CHEMBL1138512, “A class of 2,4-bisanilinopyrimidine Aurora A inhibitors with unusually high selectivity against Aurora B” (J Med Chem, 2009).

Legend:
[1] = target: RAC-alpha serine/threonine-protein kinase (Homo sapiens) (UniProt P31749); assay: Inhibition of PKBalpha at 1 uM
[2] = target: 5'-AMP-activated protein kinase catalytic subunit alpha-1 (Homo sapiens) (UniProt Q13131); assay: Inhibition of AMPK A1/B1/G1 at 1 uM
[3] = target: Serine/threonine-protein kinase Nek6 (Homo sapiens) (UniProt Q9HC98); assay: Inhibition of NEK6 at 1 uM
[4] = target: Serine/threonine-protein kinase Nek1 (Homo sapiens) (UniProt Q96PY6); assay: Inhibition of NEK1 at 1 uM
Sequence of Serine/threonine-protein kinase Nek1 (Homo sapiens) (Q96PY6 whole entry): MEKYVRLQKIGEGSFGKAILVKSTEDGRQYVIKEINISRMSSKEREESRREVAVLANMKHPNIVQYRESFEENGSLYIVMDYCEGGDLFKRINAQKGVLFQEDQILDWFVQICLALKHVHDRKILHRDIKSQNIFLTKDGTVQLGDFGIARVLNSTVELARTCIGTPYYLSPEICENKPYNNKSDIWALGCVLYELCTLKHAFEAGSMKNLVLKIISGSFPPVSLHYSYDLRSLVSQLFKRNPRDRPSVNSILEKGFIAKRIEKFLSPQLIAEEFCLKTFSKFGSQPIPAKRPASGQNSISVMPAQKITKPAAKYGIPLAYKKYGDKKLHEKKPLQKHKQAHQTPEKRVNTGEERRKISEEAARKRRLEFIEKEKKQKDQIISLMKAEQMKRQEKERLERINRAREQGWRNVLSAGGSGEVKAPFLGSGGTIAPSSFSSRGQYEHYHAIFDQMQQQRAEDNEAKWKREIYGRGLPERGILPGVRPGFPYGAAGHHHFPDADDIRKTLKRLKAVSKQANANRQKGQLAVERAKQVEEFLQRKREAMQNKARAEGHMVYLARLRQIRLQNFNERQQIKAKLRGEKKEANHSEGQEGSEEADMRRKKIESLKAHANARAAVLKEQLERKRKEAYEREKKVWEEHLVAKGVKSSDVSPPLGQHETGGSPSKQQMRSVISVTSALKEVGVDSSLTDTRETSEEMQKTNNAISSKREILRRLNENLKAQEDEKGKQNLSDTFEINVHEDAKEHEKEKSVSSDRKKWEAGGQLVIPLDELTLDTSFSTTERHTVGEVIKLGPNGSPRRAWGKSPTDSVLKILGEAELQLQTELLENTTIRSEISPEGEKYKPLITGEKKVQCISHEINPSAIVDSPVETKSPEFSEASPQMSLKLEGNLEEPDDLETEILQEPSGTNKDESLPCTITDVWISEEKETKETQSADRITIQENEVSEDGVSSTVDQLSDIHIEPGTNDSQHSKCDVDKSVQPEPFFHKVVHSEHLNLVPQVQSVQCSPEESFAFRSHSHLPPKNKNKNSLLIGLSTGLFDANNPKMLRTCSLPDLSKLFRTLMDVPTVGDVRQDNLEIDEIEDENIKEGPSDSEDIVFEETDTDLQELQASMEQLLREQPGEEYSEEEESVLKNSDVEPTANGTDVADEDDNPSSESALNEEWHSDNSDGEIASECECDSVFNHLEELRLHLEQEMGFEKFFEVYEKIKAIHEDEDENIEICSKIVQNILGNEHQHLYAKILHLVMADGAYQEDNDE

[5] = target: Calcium/calmodulin-dependent protein kinase type II subunit alpha (Homo sapiens) (UniProt Q9UQM7); assay: Inhibition of CaMK2alpha at 1 uM
[6] = target: Serine/threonine-protein kinase Nek4 (Homo sapiens) (UniProt P51957); assay: Inhibition of NEK4 at 1 uM
[7] = target: Cyclin-dependent kinase 1/cyclin B1 (Homo sapiens) (UniProt P06493+P14635); assay: Inhibition of CDK1/cyclin B at 1 uM
Sequence of Cyclin-dependent kinase 1/cyclin B1 (Homo sapiens) (P06493 whole entry, looked up): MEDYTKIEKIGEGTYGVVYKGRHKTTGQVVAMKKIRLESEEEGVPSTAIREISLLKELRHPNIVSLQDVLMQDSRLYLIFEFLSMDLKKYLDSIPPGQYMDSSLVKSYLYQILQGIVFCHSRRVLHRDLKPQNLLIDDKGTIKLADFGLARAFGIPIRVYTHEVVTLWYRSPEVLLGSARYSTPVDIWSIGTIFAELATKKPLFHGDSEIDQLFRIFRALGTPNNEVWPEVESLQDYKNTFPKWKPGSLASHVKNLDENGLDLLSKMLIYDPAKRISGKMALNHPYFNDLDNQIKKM
Sequence of Cyclin-dependent kinase 1/cyclin B1 (Homo sapiens) (P14635 whole entry, looked up): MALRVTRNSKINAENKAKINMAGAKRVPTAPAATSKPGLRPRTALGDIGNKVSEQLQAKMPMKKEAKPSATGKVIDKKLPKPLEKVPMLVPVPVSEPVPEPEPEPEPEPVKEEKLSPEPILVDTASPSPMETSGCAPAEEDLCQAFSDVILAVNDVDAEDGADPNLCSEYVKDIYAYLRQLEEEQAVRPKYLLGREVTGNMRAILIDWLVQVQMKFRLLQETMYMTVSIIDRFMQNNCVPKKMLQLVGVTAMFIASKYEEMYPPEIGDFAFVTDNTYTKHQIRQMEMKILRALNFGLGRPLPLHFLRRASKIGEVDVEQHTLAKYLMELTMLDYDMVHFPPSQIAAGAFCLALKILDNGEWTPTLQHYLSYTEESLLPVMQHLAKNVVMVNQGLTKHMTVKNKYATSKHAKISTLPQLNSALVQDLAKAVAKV

[8] = target: Aurora kinase A (Homo sapiens) (UniProt O14965); assay: Inhibition of Aurora A at 1 uM
Sequence of Aurora kinase A (Homo sapiens) (O14965 whole entry): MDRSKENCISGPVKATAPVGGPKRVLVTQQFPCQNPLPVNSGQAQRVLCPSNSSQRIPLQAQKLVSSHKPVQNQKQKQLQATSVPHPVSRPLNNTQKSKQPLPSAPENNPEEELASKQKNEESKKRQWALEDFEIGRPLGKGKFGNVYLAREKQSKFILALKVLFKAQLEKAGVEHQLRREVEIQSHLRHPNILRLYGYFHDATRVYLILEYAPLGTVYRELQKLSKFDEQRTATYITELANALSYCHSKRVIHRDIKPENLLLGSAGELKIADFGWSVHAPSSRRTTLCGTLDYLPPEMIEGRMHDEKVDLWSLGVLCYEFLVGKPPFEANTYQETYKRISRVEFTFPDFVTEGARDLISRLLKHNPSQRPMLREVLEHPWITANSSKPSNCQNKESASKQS

[9] = target: Cyclin-dependent kinase 5/CDK5 activator 1 (Homo sapiens) (UniProt Q00535+Q15078); assay: Inhibition of CDK5/p25 at 1 uM; assay type: protein-complex assay
[10] = target: Dual specificity tyrosine-phosphorylation-regulated kinase 3 (Homo sapiens) (UniProt O43781); assay: Inhibition of DYRK3 at 1 uM
[11] = target: Tyrosine-protein kinase JAK2 (Homo sapiens) (UniProt O60674); assay: Inhibition of JAK2 at 1 uM
[12] = target: Proto-oncogene tyrosine-protein kinase Src (Homo sapiens) (UniProt P12931); assay: Inhibition of SRC at 1 uM
[13] = target: Mitogen-activated protein kinase 1 (Homo sapiens) (UniProt P28482); assay: Inhibition of ERK2 at 1 uM
[14] = target: Phosphorylase b kinase gamma catalytic chain, skeletal muscle/heart isoform (Homo sapiens) (UniProt Q16816); assay: Inhibition of PHKG1 at 1 uM
[15] = target: Inhibitor of nuclear factor kappa-B kinase subunit beta (Homo sapiens) (UniProt O14920); assay: Inhibition of IKK-beta at 1 uM
HT-29 = assay: Antiproliferative activity against human HT-29 cells after 4 days by celltiter assay; assay type: functional, cell-based; conditions: HT-29, 96 h
[16] = target: Epidermal growth factor receptor (Homo sapiens) (UniProt P00533); assay: Inhibition of ErbB1 at 1 uM
[17] = target: Serine/threonine-protein kinase PLK3 (Homo sapiens) (UniProt Q9H4B4); assay: Inhibition of PLK3 at 1 uM
[18] = target: Serine/threonine-protein kinase pim-1 (Homo sapiens) (UniProt P11309); assay: Inhibition of PIM1 at 1 uM
[19] = target: Ribosomal protein S6 kinase beta-1 (Homo sapiens) (UniProt P23443); assay: Inhibition of p70S6K at 1 uM
[20] = target: Protein kinase C alpha type (Homo sapiens) (UniProt P17252); assay: Inhibition of PKCalpha at 1 uM
Aurora kinase B = Aurora kinase B (Homo sapiens, UniProt Q96GD4); assay: Inhibition of Aurora B in human HCT116 cells assessed as complete loss of phospho-histone H3 staining by immunofluorescence assay
Sequence of Aurora kinase B (Q96GD4 whole entry): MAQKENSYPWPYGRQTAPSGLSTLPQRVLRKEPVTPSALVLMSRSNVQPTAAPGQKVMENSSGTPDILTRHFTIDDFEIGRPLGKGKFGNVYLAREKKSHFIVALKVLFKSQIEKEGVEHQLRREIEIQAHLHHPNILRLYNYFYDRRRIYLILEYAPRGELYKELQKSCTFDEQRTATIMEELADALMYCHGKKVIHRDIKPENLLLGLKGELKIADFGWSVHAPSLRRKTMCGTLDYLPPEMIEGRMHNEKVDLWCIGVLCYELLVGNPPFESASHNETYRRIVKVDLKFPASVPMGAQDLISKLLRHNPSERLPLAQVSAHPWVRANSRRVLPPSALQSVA

[21] = target: Mitogen-activated protein kinase 14 (Homo sapiens) (UniProt Q16539); assay: Inhibition of P38alpha at 1 uM
Sequence of Mitogen-activated protein kinase 14 (Homo sapiens) (Q16539 whole entry): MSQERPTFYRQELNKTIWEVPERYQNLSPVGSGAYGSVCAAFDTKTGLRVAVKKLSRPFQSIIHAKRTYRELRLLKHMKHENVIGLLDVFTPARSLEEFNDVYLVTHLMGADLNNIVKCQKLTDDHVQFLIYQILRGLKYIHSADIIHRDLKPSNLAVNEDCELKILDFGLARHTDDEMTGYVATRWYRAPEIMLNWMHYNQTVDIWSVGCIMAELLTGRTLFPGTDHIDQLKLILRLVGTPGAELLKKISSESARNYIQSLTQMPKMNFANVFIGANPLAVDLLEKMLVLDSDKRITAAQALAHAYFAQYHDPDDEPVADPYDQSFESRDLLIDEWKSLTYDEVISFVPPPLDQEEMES

[22] = target: High affinity nerve growth factor receptor (Homo sapiens) (UniProt P04629); assay: Inhibition of TRKA at 1 uM
[23] = target: Serine/threonine-protein kinase Chk2 (Homo sapiens) (UniProt O96017); assay: Inhibition of CHK2 at 1 uM
[24] = target: 3-phosphoinositide-dependent protein kinase 1 (Homo sapiens) (UniProt O15530); assay: Inhibition of PDK1 at 1 uM
Sequence of 3-phosphoinositide-dependent protein kinase 1 (Homo sapiens) (O15530 whole entry, looked up): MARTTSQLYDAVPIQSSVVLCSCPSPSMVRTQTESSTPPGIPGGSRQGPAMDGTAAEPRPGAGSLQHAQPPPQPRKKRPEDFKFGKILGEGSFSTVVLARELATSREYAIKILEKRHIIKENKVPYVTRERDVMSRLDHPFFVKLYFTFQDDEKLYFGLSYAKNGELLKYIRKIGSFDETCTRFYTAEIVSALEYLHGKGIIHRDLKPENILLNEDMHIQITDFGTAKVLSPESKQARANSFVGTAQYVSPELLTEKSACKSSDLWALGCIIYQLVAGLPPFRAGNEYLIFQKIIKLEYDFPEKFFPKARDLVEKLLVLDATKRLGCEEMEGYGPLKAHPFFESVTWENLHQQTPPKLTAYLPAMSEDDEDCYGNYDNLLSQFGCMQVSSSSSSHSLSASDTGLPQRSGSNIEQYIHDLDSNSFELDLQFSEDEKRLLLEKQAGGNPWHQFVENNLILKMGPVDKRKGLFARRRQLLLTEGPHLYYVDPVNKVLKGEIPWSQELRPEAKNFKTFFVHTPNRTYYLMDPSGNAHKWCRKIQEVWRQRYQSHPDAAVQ

[25] = target: Vascular endothelial growth factor receptor 2 (Homo sapiens) (UniProt P35968); assay: Inhibition of VEGFR2 at 1 uM
[26] = target: Dual specificity mitogen-activated protein kinase kinase 1 (Homo sapiens) (UniProt Q02750); assay: Inhibition of MEK1 at 1 uM
[27] = target: Serine/threonine-protein kinase Sgk1 (Homo sapiens) (UniProt O00141); assay: Inhibition of SGK1 at 1 uM
Sequence of Serine/threonine-protein kinase Sgk1 (Homo sapiens) (O00141 whole entry): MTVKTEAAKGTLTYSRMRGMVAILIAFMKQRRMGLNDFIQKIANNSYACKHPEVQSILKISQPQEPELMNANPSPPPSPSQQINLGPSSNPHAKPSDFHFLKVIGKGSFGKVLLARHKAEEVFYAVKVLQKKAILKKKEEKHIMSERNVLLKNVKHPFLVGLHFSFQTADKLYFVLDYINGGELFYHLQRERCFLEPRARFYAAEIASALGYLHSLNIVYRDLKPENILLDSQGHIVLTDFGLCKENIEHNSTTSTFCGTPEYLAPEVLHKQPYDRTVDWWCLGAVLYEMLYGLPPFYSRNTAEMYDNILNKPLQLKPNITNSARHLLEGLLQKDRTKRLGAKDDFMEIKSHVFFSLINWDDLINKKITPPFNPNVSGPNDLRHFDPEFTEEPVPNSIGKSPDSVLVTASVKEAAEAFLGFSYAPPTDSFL

[28] = target: Receptor-type tyrosine-protein kinase FLT3 (Homo sapiens) (UniProt P36888); assay: Inhibition of FLT3 at 1 uM

In the case of CC(=O)N1CCN(C(=O)Cc2ccc(Nc3ncc(F)c(Nc4ccc(C(=O)Nc5ccccc5Cl)cc4)n3)cc2)CC1, the inhibition [1] is reported as 11%, the inhibition [2] is reported as 20% and the inhibition [3] is reported as 8%. For the same compound, the inhibition [4] was 29%, the inhibition [5] was 9% and the inhibition [6] was 11%. For the same compound, the inhibition [7] was 15%, the inhibition [8] was 103% and the inhibition [9] was 7%. The inhibition [10] was 5%, the inhibition [11] was 78% and the inhibition [12] was 30%. For the same compound, the inhibition [13] was 11%, the inhibition [14] was 18% and the inhibition [15] was 39%. It also gave an IC50 (HT-29) of 6.2 µM, an inhibition [16] of 5% and an inhibition [17] of -3%. It also gave an inhibition [18] of 2%, an inhibition [19] of 17% and an inhibition [20] of 15%. The IC50 (Aurora kinase B) was > 25 µM, the inhibition [21] was 28% and the inhibition [22] was 67%. The inhibition [23] was 12%, the inhibition [24] was 19% and the inhibition [25] was 76%. The inhibition [26] was 21%, the inhibition [27] was 7% and the inhibition [28] was 91%.
